The text below walks through data of patent publication US20130253179A1, “Functionalization Processes and Reactants Used in Such Processes Using an Isatoic Anhydride or a Derivative Thereof, Biological Molecules Thus Treated and Kits” (priority 2010, published 2013).

One data set relates to HIV WT transcript. The experiment in a line: NASBA amplification of functionalised, captured and eluted HIV transcripts. Type of data set: biochemical. The procedure:
In the preceding example 12, 4 μg of a WT HIV transcript (1083 nucleotides, internal production, bioMérieux batch 841470301, C=3.27E12 copies μl) was biotinylated with different concentrations of the compound (24) (0 mM, 15 mM, 30 mM, 120 mM, 180 mM, i.e. the experiments #1-7 of Table 6). This transcript was then captured on Merck MagPrep 25 Streptavidin magnetic particles, then, after rinsing, the particles were subjected to a 100 mM DTT treatment in PBS 1x pH 7 at 40° C. for one hour, in order to cleave the disulfide bond (SS) and elute the transcripts with —SH anthranilate groups, as shown in FIG. 16. We evaluated the ability of these transcripts to be amplified by the NASBA technology. This evaluation was performed as a comparison with an unfunctionalised “bare” HIV_WT transcript range.
The amplification is performed on a NucliSENS EasyQ instrument (bioMérieux, Lyon, France) and with a NucliSENS EasyQ HIV-1 V2.0 kit (bioMérieux, Lyon, France, ref. 285033, batch 09122106). The software used is NucliSENS EasyQ Director, and the protocol is QL1-60 1.0 (bioMérieux, Lyon, France).
After functionalisation with compound 24, capture and elution in 8 μL of 100 mM DTT, as described in example 12, the transcripts of experiments #2-5 from Table 7 were assayed on RNA 6000 NANO chip with the AGILENT bioanalyzer (Santa Clara, USA), and were diluted in the following concentrations: 1000 copies, 100 copies, 50 copies, 10 copies, 1 copy, 0 copies in 15 μl. An HIV IC transcript (internal control of the same amplified sequence as the WT (wild type) transcript, but detected by a molecular beacon carrying another fluorophore) diluted to 360 copies is added to the 15 μl volume, and will be present in all of the wells in which the amplifications occur. This transcript serves to monitor the correct operation of the amplification. The tests are carried out in triplicate.
Six Accuspheres ENZ II (NucliSENS EasyQ HIV-1 V2.0 kit, ref. 285033, bioMérieux, Lyon, France) are deposited into a 1.5 ml polypropylene tube. A volume of 270 μL of ENZdil H (NucliSENS EasyQ HIV-1 V2.0 kit, ref. 285033, bioMérieux, Lyon, France) is added onto the Accuspheres, and 15 minutes are allowed to pass, for them to dissolve completely. The twelve Accuspheres PRM H (NucliSENS EasyQ HIV-1 V2.0 kit, ref. 285033, bioMérieux, Lyon, France) are deposited into a 1.5 ml polypropylene tube 1080 μL of PRMdi l H (NucliSENS EasyQ HIV-1 V2.0 kit, ref. 285033, bioMérieux, Lyon, France) is added onto these Accuspheres and the mixture is immediately vortex stirred until the Accuspheres dissolve completely. After complete dissolution in the two tubes (mix ENZ II and mix PRM H), these mixtures are centrifuged with a benchtop centrifuge. […]

Another data set relates to MAQC RNA. As to the kind of experiment: DoL of MAQC total RNA after zinc acetate cleaving and alkaline phosphatase treatment. Format: biochemical, human. The following applies: compound 15 mM. The procedure:
The panel of RNA strands is MAQC RNA (Stratagene Reference: #74000). This total RNA (ribosomal and messenger) is directly extracted from ten lines of human cells of different origin: brain, breast, B Lymphocyte, uterine cervix, liver, liposarcoma, macrophage, skin, testicle, Lymphocyte T.
The functionalisation protocol is the same as that described in example 9, i.e.: • 12 μg of MAQC0 RNA is incubated, or not, with a Zinc acetate solution. • The mixture is precipitated with isopropanol. • 7 units of alkaline phosphatase (P7923-2KU Sigma-Aldrich) are added to the mixture, […] There is then added to the mixture the molecule Cy3-IA Me 13 at 15 mM in a NaHCO3 buffer (100 mM/DMSO 75/25 pH 8-8.5), with a total volume of 80 μl. The mixture is incubated for 1 h at 65° C. • The mixture is precipitated once again with isopropanol, then twice with acetone, before the DoL is measured as described in example 9.

For the molecule `Cn1c(=O)oc(=O)c2cc(NC(=O)CCSSCCNC(=O)CCOCCOCCOCCOCCNC(=O)CCCCC3SCC4NC(=O)NC43)ccc21` (stereo not drawn) [5Biot PEG4 SS IA Me 24], the “Minimum number of copies detected” value was determined as 10 copies in the data set with HIV WT transcript (15 mM functionalisation reagent), 10 copies in the data set with HIV WT transcript (30 mM functionalisation reagent), 100 copies with HIV WT transcript (120 mM functionalisation reagent) and 1000 copies in the data set with HIV WT transcript (180 mM functionalisation reagent).
`CCN1/C(=C\C=C\C2=[N+](CCCCCC(=O)Nc3ccc4c(c3)c(=O)oc(=O)n4C)c3ccc(S(=O)(=O)[O-])cc3C2(C)C)C(C)(C)c2cc(S(=O)(=O)[O-])ccc21.[K+]` [Cy3 IA Me 13, 1-methyl 5-Cy3-isatoic anhydride]: the solubility (commonly the concentration that dissolves in the medium under given conditions) in the data set “Solubility in water” was more than 100 mM. For the same molecule, the DoL with MAQC RNA (10 mM Zn(OAc)2 0 mins, AP hydrolysis 0) is on record as 1.7%; in the data set with MAQC RNA (10 mM Zn(OAc)2 0 mins, AP hydrolysis 4 h) it was 1.5%; in the data set with MAQC RNA (10 mM Zn(OAc)2 15 mins, AP hydrolysis 0) it was 1.7%; in the data set on MAQC RNA (10 mM Zn(OAc)2 15 mins, AP hydrolysis 4 h), 2.5%.
